# According to patent US20250129018A1, “PLEUROMUTILIN DERIVATIVES CONTAINING CYCLOALKYL GROUP AND PREPARATION METHODS AND APPLICATIONS THEREOF” (priority 2023, published 2025):
# Like-named read-outs stand apart in the source and are kept apart here.
# Assays:
# MRSA-337371 = experiment: MIC, two-fold serial dilution method; assay type: cell-based, Methicillin-resistant Staphylococcus aureus; settings: Staphylococcus aureus, read-out: minimum inhibitory concentration
# Method: (§1) The pleuromutilin derivatives 1-4 prepared from Example 9 of the present disclosure were determined for their effect on Methicillin-resistant Staphylococcus aureus, Methicillin-resistant Staphylococcus epidermidis, standard strains of Staphylococcus aureus (S. aureus-29213 and S. aureus-25923), clinical strains 1-48 of S. aureus, Escherichia coli, S. agalactiae and S. dysgalactiae equisimilis (S. dysgalactiae-1, S. dysgalactiae-2, S. dysgalactiae-3) and minimum inhibitory concentration (MIC) using a two-fold serial dilution method, and the results were shown in Table 1, Table 2 and Table 3. The standard strains are commercially available from ATCC, and the clinical strains are preserved by Lanzhou Institute of Husbandry and Pharmaceutical Science of Chinese Academy of Agricultural Sciences (Lanzhou, Gansu, China).
# S. aureus-7 = experiment: MIC, clinical strain; assay type: cell-based, Staphylococcus aureus
# Method: as §1
# S. aureus-41 = experiment: MIC, clinical strain; assay type: cell-based, Staphylococcus aureus
# Method: as §1
# S. aureus-46 = experiment: MIC, clinical strain; assay type: cell-based, Staphylococcus aureus
# Method: as §1
# S. aureus-32 = experiment: MIC, clinical strain; assay type: cell-based, Staphylococcus aureus
# Method: as §1
# S. aureus-1 = experiment: MIC, clinical strain; assay type: cell-based, Staphylococcus aureus
# Method: as §1
# S. aureus-11 = experiment: MIC, clinical strain; assay type: cell-based, Staphylococcus aureus
# Method: as §1
# S. aureus-28 = experiment: MIC, clinical strain; assay type: cell-based, Staphylococcus aureus
# Method: as §1
# S. aureus-34 = experiment: MIC, clinical strain; assay type: cell-based, Staphylococcus aureus
# Method: as §1
# S. aureus-4 = experiment: MIC, clinical strain; assay type: cell-based, Staphylococcus aureus
# Method: as §1
# S. aureus-39 = experiment: MIC, clinical strain; assay type: cell-based, Staphylococcus aureus
# Method: as §1
# S. aureus-22 = experiment: MIC, clinical strain; assay type: cell-based, Staphylococcus aureus
# Method: as §1
# S. aureus-44 = experiment: MIC, clinical strain; assay type: cell-based, Staphylococcus aureus
# Method: as §1
# S. aureus-16 = experiment: MIC, clinical strain; assay type: cell-based, Staphylococcus aureus
# Method: as §1
# S. aureus-40 = experiment: MIC, clinical strain; assay type: cell-based, Staphylococcus aureus
# Method: as §1
# S. aureus-24 = experiment: MIC, clinical strain; assay type: cell-based, Staphylococcus aureus
# Method: as §1
# S. aureus-33 = experiment: MIC, clinical strain; assay type: cell-based, Staphylococcus aureus
# Method: as §1
# S. aureus-29 = experiment: MIC, clinical strain; assay type: cell-based, Staphylococcus aureus
# Method: as §1
# S. aureus-5 = experiment: MIC, clinical strain; assay type: cell-based, Staphylococcus aureus
# Method: as §1
# S. aureus-45 = experiment: MIC, clinical strain; assay type: cell-based, Staphylococcus aureus
# Method: as §1
# S. aureus-37 = experiment: MIC, clinical strain; assay type: cell-based, Staphylococcus aureus
# Method: as §1
# S. aureus-38 = experiment: MIC, clinical strain; assay type: cell-based, Staphylococcus aureus
# Method: as §1
# S. aureus-2 = experiment: MIC, clinical strain; assay type: cell-based, Staphylococcus aureus
# Method: as §1
# S. aureus-47 = experiment: MIC, clinical strain; assay type: cell-based, Staphylococcus aureus
# Method: as §1
# S. aureus-42 = experiment: MIC, clinical strain; assay type: cell-based, Staphylococcus aureus
# Method: as §1
# S. aureus-35 = experiment: MIC, clinical strain; assay type: cell-based, Staphylococcus aureus
# Method: as §1
# S. aureus-10 = experiment: MIC, clinical strain; assay type: cell-based, Staphylococcus aureus
# Method: as §1
# S. aureus-13 = experiment: MIC, clinical strain; assay type: cell-based, Staphylococcus aureus
# Method: as §1
# S. aureus-30 = experiment: MIC, clinical strain; assay type: cell-based, Staphylococcus aureus
# Method: as §1
# S. aureus-12 = experiment: MIC, clinical strain; assay type: cell-based, Staphylococcus aureus
# Method: as §1
# S. aureus-6 = experiment: MIC, clinical strain; assay type: cell-based, Staphylococcus aureus
# Method: as §1
# S. aureus-19 = experiment: MIC, clinical strain; assay type: cell-based, Staphylococcus aureus
# Method: as §1
# S. aureus-3 = experiment: MIC, clinical strain; assay type: cell-based, Staphylococcus aureus
# Method: as §1
# S. aureus-36 = experiment: MIC, clinical strain; assay type: cell-based, Staphylococcus aureus
# Method: as §1
# S. aureus-25 = experiment: MIC, clinical strain; assay type: cell-based, Staphylococcus aureus
# Method: as §1
# S. aureus-23 = experiment: MIC, clinical strain; assay type: cell-based, Staphylococcus aureus
# Method: as §1
# S. aureus-21 = experiment: MIC, clinical strain; assay type: cell-based, Staphylococcus aureus
# Method: as §1
# S. aureus-9 = experiment: MIC, clinical strain; assay type: cell-based, Staphylococcus aureus
# Method: as §1
# S. aureus-20 = experiment: MIC, clinical strain; assay type: cell-based, Staphylococcus aureus
# Method: as §1
# S. aureus-15 = experiment: MIC, clinical strain; assay type: cell-based, Staphylococcus aureus
# Method: as §1
# S. aureus-25923 = experiment: MIC, two-fold serial dilution method; assay type: cell-based, Staphylococcus aureus; settings: Staphylococcus aureus, read-out: minimum inhibitory concentration
# Method: as §1
# S. aureus-29213 = experiment: MIC, two-fold serial dilution method; assay type: cell-based, Staphylococcus aureus; settings: Staphylococcus aureus, read-out: minimum inhibitory concentration
# Method: as §1
structure (smiles),measurement,setting,value
C=C[C@]1(C)C[C@@H](OC(=O)CSCCN(CC)CC)[C@]2(C)[C@H](C)CC[C@]3(CCC(=O)[C@H]32)[C@@H](C)[C@@H]1O [Tiamulin],MIC,MRSA-337371; MRSA-337371,0.25 µg/mL
same,in vitro minimum inhibitory concentration,S. aureus-7,1
same,in vitro minimum inhibitory concentration,S. aureus-41,0.5
same,in vitro minimum inhibitory concentration,S. aureus-46,1
same,in vitro minimum inhibitory concentration,S. aureus-32,1
same,in vitro minimum inhibitory concentration,S. aureus-1,0.5 µg/mL
same,in vitro minimum inhibitory concentration,S. aureus-11,0.5
same,in vitro minimum inhibitory concentration,S. aureus-28,1
same,in vitro minimum inhibitory concentration,S. aureus-34,0.5
same,in vitro minimum inhibitory concentration,S. aureus-4,0.5
same,in vitro minimum inhibitory concentration,S. aureus-39,0.25
same,in vitro minimum inhibitory concentration,S. aureus-22,0.5 µg/mL
same,in vitro minimum inhibitory concentration,S. aureus-44,0.5
same,in vitro minimum inhibitory concentration,S. aureus-16,0.5
same,in vitro minimum inhibitory concentration,S. aureus-40,1
same,in vitro minimum inhibitory concentration,S. aureus-24,0.25
same,in vitro minimum inhibitory concentration,S. aureus-33,1
same,in vitro minimum inhibitory concentration,S. aureus-29,1
same,in vitro minimum inhibitory concentration,S. aureus-5,0.5
same,in vitro minimum inhibitory concentration,S. aureus-45,1
same,in vitro minimum inhibitory concentration,S. aureus-37,0.5
same,in vitro minimum inhibitory concentration,S. aureus-38,0.5
same,in vitro minimum inhibitory concentration,S. aureus-2,0.5
same,in vitro minimum inhibitory concentration,S. aureus-47,0.5
same,in vitro minimum inhibitory concentration,S. aureus-42,0.5
same,in vitro minimum inhibitory concentration,S. aureus-35,0.5
same,in vitro minimum inhibitory concentration,S. aureus-10,0.5
same,in vitro minimum inhibitory concentration,S. aureus-13,0.25 µg/mL
same,in vitro minimum inhibitory concentration,S. aureus-30,0.5
same,in vitro minimum inhibitory concentration,S. aureus-12,0.5
same,in vitro minimum inhibitory concentration,S. aureus-6,0.25
same,in vitro minimum inhibitory concentration,S. aureus-19,0.5
same,in vitro minimum inhibitory concentration,S. aureus-3,0.5
same,in vitro minimum inhibitory concentration,S. aureus-36,0.25
same,in vitro minimum inhibitory concentration,S. aureus-25,0.5
same,in vitro minimum inhibitory concentration,S. aureus-23,0.5
same,in vitro minimum inhibitory concentration,S. aureus-21,0.5 µg/mL
same,in vitro minimum inhibitory concentration,S. aureus-9,0.5
same,in vitro minimum inhibitory concentration,S. aureus-20,0.5 µg/mL
same,in vitro minimum inhibitory concentration,S. aureus-15,0.5 µg/mL
same,MIC,S. aureus-25923; S. aureus-25923,0.25 µg/mL
same,MIC,S. aureus-29213; S. aureus-29213,0.5 µg/mL
C=C[C@]1(C)C[C@@H](OC(=O)CSC(C)(C)CNC(=O)[C@H](N)C(C)C)[C@]2(C)[C@H](C)CC[C@]3(CCC(=O)[C@H]32)[C@@H](C)[C@@H]1O [Valnemulin],MIC,MRSA-337371; MRSA,0.031 µg/mL
same,in vitro minimum inhibitory concentration,S. aureus-7,0.063
same,in vitro minimum inhibitory concentration,S. aureus-41,0.063
same,in vitro minimum inhibitory concentration,S. aureus-46,0.063
same,in vitro minimum inhibitory concentration,S. aureus-32,0.063
same,in vitro minimum inhibitory concentration,S. aureus-1,0.25 µg/mL
same,in vitro minimum inhibitory concentration,S. aureus-11,0.063
same,in vitro minimum inhibitory concentration,S. aureus-28,0.063
same,in vitro minimum inhibitory concentration,S. aureus-34,0.063
same,in vitro minimum inhibitory concentration,S. aureus-4,0.125
same,in vitro minimum inhibitory concentration,S. aureus-39,0.125
same,in vitro minimum inhibitory concentration,S. aureus-22,0.25 µg/mL
same,in vitro minimum inhibitory concentration,S. aureus-44,0.063
same,in vitro minimum inhibitory concentration,S. aureus-16,0.063
same,in vitro minimum inhibitory concentration,S. aureus-40,0.063
same,in vitro minimum inhibitory concentration,S. aureus-24,0.063
same,in vitro minimum inhibitory concentration,S. aureus-33,0.063
same,in vitro minimum inhibitory concentration,S. aureus-29,0.063
same,in vitro minimum inhibitory concentration,S. aureus-5,0.063
same,in vitro minimum inhibitory concentration,S. aureus-45,0.25
same,in vitro minimum inhibitory concentration,S. aureus-37,0.063
same,in vitro minimum inhibitory concentration,S. aureus-38,0.063
same,in vitro minimum inhibitory concentration,S. aureus-2,0.25
same,in vitro minimum inhibitory concentration,S. aureus-47,0.063
same,in vitro minimum inhibitory concentration,S. aureus-42,0.063
same,in vitro minimum inhibitory concentration,S. aureus-35,0.063
same,in vitro minimum inhibitory concentration,S. aureus-10,0.063
same,in vitro minimum inhibitory concentration,S. aureus-13; in µg/mL,0.063
same,in vitro minimum inhibitory concentration,S. aureus-30,0.063
same,in vitro minimum inhibitory concentration,S. aureus-12,0.031
same,in vitro minimum inhibitory concentration,S. aureus-6,0.063
same,in vitro minimum inhibitory concentration,S. aureus-19,0.063
same,in vitro minimum inhibitory concentration,S. aureus-3,0.063
same,in vitro minimum inhibitory concentration,S. aureus-36,0.063
same,in vitro minimum inhibitory concentration,S. aureus-25,0.063
same,in vitro minimum inhibitory concentration,S. aureus-23,0.063
same,in vitro minimum inhibitory concentration,S. aureus-21; in µg/mL,0.125
same,in vitro minimum inhibitory concentration,S. aureus-9,0.063
same,in vitro minimum inhibitory concentration,S. aureus-20; in µg/mL,0.125
same,in vitro minimum inhibitory concentration,S. aureus-15; in µg/mL,0.063
same,MIC,S. aureus-25923,0.031 µg/mL
same,MIC,S. aureus-29213,0.063 µg/mL
